Measured values from ChEMBL document CHEMBL4152365, “Discovery of DS-6930, a potent selective PPARγ modulator. Part I: Lead identification” (Bioorg Med Chem, 2018).
In brackets after ≈: the same amount, converted by molar mass. Activity calls are given as the source filed them. No cut-off for these calls is given here.

Legend:
[1] = target: T1, Peroxisome proliferator-activated receptor delta (Homo sapiens) (UniProt Q03181); assay: Agonist activity at PPARdelta (unknown origin) at 10 uM
T1 sequence (whole entry): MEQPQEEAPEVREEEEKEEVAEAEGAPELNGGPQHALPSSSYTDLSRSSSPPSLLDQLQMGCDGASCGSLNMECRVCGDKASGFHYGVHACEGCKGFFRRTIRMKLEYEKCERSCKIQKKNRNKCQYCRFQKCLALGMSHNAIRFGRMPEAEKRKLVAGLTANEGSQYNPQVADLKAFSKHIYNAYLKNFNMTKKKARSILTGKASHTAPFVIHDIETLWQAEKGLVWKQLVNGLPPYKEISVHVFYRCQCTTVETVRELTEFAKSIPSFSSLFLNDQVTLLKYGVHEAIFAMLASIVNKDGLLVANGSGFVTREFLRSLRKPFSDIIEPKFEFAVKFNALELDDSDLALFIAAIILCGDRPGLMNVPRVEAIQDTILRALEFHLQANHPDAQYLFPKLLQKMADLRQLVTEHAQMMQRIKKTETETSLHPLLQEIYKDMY

[2] = Metabolic stability in human liver microsomes after 0.5 hrs; assay type: ADME, microsome; conditions: read-out: Stability
[3] = target: T2, Peroxisome proliferator-activated receptor alpha (Homo sapiens) (UniProt Q07869); assay: Agonist activity at recombinant human GAL4-DBD fused PPARalpha LBD expressed in COS7 cells at 10 uM after 24 hrs by luciferase reporter gene assay relative to 2-(4-tert-Butylphenoxy)-3-[4-[2-[(4-pyridin-2-ylbenzoyl)amino]ethoxy]; assay type: cell-based
T2 sequence (whole entry): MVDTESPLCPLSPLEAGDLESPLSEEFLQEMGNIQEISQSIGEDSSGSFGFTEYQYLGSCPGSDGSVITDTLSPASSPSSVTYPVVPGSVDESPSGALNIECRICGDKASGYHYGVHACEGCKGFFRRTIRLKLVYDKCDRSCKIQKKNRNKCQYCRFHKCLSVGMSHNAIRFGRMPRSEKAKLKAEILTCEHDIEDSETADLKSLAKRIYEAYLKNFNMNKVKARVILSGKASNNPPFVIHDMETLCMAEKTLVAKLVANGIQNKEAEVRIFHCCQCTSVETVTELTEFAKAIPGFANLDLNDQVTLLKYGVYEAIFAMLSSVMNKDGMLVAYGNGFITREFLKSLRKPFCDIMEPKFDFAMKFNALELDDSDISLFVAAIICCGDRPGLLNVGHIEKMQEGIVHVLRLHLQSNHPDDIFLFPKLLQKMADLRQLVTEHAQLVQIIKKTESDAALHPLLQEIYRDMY

[4] = test system: Mus musculus; assay: Glucose-lowering effect in hyperglycemic KK/Ta mouse assessed as reduction in plasma glucose level at 30 mg/kg/day, po administered through diet for 3 days relative to control; assay type: functional; design: scale not given: the % may be the effect or the level left
[5] = target: T3, Peroxisome proliferator-activated receptor gamma (Homo sapiens, UniProt P37231); assay: Agonist activity at recombinant human GAL4-DBD fused PPARgamma LBD expressed in COS7 cells after 24 hrs by luciferase reporter gene assay; assay type: cell-based
T3 sequence (P37231 whole entry): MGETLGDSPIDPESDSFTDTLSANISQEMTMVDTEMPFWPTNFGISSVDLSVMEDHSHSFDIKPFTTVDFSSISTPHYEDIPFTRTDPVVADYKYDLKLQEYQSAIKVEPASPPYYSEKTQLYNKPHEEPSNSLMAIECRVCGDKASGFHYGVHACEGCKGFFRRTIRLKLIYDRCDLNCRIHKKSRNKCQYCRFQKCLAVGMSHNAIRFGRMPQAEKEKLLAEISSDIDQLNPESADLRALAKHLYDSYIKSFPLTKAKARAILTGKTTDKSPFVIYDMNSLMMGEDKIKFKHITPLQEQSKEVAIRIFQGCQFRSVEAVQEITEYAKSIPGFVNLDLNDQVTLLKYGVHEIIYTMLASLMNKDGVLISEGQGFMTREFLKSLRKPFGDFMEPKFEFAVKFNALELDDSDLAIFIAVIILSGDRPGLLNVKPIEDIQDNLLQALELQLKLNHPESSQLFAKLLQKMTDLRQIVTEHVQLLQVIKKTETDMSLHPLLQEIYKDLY

[6] = 1-octanol/PBS distribution co-efficient, log D of the compound at […] at pH 7.4 after 30 mins by HPLC-MS/MS analysis; assay type: physicochemical
[7] = Plasma concentration in hyperglycemic KK/Ta mouse at 30 mg/kg/day, po administered through diet for 3 days measured on day 3 post last dose; assay type: ADME, organism-based
[8] = target: T4, Peroxisome proliferator-activated receptor gamma (Homo sapiens) (UniProt P37231); assay: Agonist activity at recombinant human GAL4-DBD fused PPARgamma LBD expressed in COS7 cells at 10 uM after 24 hrs by luciferase reporter gene assay relative to rosiglitazone; assay type: cell-based
T4 sequence (whole entry): T3 sequence (P37231 whole entry)

[9] = test system: Mus musculus; assay: Toxicity in hyperglycemic KK/Ta mouse assessed as body weight gain at 30 mg/kg/day, po administered through diet for 3 days relative to control; assay type: organism-based; conditions: in vivo, 72 h
[10] = target: T5, Peroxisome proliferator-activated receptor alpha (Homo sapiens, UniProt Q07869); assay: Agonist activity at recombinant human GAL4-DBD fused PPARalpha LBD expressed in COS7 cells after 24 hrs by luciferase reporter gene assay; assay type: cell-based
T5 sequence (Q07869 whole entry): T2 sequence (whole entry)

[11] = Aqueous thermodynamic solubility of the compound in pH 6.8 solution up to 4 hrs by HPLC-UV analysis; assay type: physicochemical; conditions: read-out: Therm_solubility
[12] = Metabolic stability in rat liver microsomes after 0.5 hrs; assay type: ADME, microsome; conditions: read-out: Stability
[13] = Volume of distribution at steady state in cynomolgus monkey at 1 mg/kg, iv by LC-MS/MS analysis; assay type: ADME, organism-based, Macaca fascicularis; conditions: in vivo, read-out: Vdss
[14] = test system: Rattus norvegicus; assay: Glucose-lowering effect in Zucker diabetic fatty rat assessed as reduction in plasma glucose level at 3 mg/kg, po administered once daily for 14 days measured on day 14 post last dose relative to control; assay type: functional; design: scale not given: the % may be the effect or the level left
[15] = Half life in cynomolgus monkey at 3 mg/kg, po by LC-MS/MS analysis; assay type: ADME, organism-based, Macaca fascicularis; conditions: in vivo
[16] = Cmax in Zucker diabetic fatty rat at 3 mg/kg, po dosed once daily for 14 days and followed by additional administeration on day 15; assay type: ADME, organism-based; design: dose 3 mg/kg, route oral; conditions: in vivo
[17] = test system: Rattus norvegicus; assay: Toxicity in Zucker diabetic fatty rat assessed as body weight gain at 3 mg/kg, po administered once daily for 14 days relative to control; assay type: organism-based; conditions: in vivo, 336 h
[18] = Tmax in cynomolgus monkey at 3 mg/kg, po by LC-MS/MS analysis; assay type: ADME, organism-based, Macaca fascicularis; conditions: in vivo
[19] = AUClast in cynomolgus monkey at 3 mg/kg, po by LC-MS/MS analysis; assay type: ADME, organism-based, Macaca fascicularis; design: dose 3 mg/kg, route oral, time 0 - last; conditions: in vivo
[20] = Metabolic stability in cynomolgus monkey liver microsomes after 0.5 hrs; assay type: ADME, Macaca fascicularis, microsome; conditions: read-out: Stability
[21] = AUC (0 to 24 hrs) in Zucker diabetic fatty rat at 3 mg/kg, po dosed once daily for 14 days and followed by additional administeration on day 15; assay type: ADME, organism-based; design: dose 3 mg/kg, time < 24 hr, route oral; conditions: in vivo
[22] = Clearance in cynomolgus monkey at 1 mg/kg, iv by LC-MS/MS analysis; assay type: ADME, organism-based, Macaca fascicularis; conditions: in vivo
[23] = Oral bioavailability in cynomolgus monkey at 3 mg/kg by LC-MS/MS analysis; assay type: ADME, organism-based, Macaca fascicularis; conditions: in vivo
[24] = Cmax in cynomolgus monkey at 3 mg/kg, po by LC-MS/MS analysis; assay type: ADME, organism-based, Macaca fascicularis; design: dose 3 mg/kg, route oral; conditions: in vivo
[25] = Tmax in Zucker diabetic fatty rat at 3 mg/kg, po dosed once daily for 14 days and followed by additional administeration on day 15; assay type: ADME, organism-based; conditions: in vivo

Compound	Activity [1]	remaining at 0.5 h [2] [%]	Emax [3] [%]	EC50 [5] [nM]	logD at 0.5 h [6]	concentration at 72 h [7] [ng/mL]	Emax [8] [%]	EC50 [10] [nM]	solubility thermodynamic at 4 h [11] [µg/mL]	Activity [4] [%]	Activity [9] [%]	other results
Cn1c(COc2cccc(C(=O)O)c2)nc2ccc(Oc3ccc(F)cc3)cc21	inactive		29	122	2	320	75	> 10000	19 (≈ 48.4 µM)	56.7	3.4	
Cc1ccc(Oc2ccc3nc(COc4cccc(C(=O)O)c4)n(C)c3c2)cc1F		91	40	4.4	2.7	470	80	> 10000	4.4 (≈ 10.8 µM)	56.8	4.2	remaining at 0.5 h [12]: 100%; Vd [13]: 0.32 L/kg; Activity [14]: 59.3%; half-life [15]: 13.8 h; Cmax [16]: 790 ng/mL; Activity [17]: 13.8%; Tmax [18]: 1.5 h; AUC(0-t) [19]: 8440 ng·h/mL; remaining at 0.5 h [20]: 91%; AUC at 24 h [21]: 5530 ng·h/mL; clearance [22]: 1.8 mL/min/kg; bioavailability [23]: 28%; Cmax [24]: 2060 ng/mL; Tmax [25]: 2 h
Cn1c(COc2cccc(C(=O)O)c2)nc2ccc(Oc3ccc(Cl)cc3)cc21	inactive		8	126	2.6		62	> 10000	2 (≈ 4.89 µM)	34.4	4.1	
Cl.Cn1c(COc2cccc(C(=O)O)c2)nc2ccc(Oc3cccc(Cl)c3)cc21	inactive	90	69	86	2.7	190	103			59.6	2.8	
Cc1cccc(Oc2ccc3nc(COc4cccc(C(=O)O)c4)n(C)c3c2)c1	inactive	69	19	79	2.3	90	76	> 10000	3.8 (≈ 9.78 µM)	56.9	3.2	
Cn1c(COc2cccc(C(=O)O)c2)nc2ccc(Oc3cccc(OC(F)(F)F)c3)cc21	inactive	98	17	113	3.3	370	69	> 10000	0.9 (≈ 1.96 µM)	41.9	5.3	
COc1ccc(Oc2ccc3nc(COc4cccc(C(=O)O)c4)n(C)c3c2)cc1	inactive	100	7	307	1.8		71	> 10000	9.3 (≈ 23 µM)			
Cn1c(COc2cccc(C(=O)O)c2)nc2ccc(Oc3cccc(F)c3)cc21	inactive	98	22	201	2	1740	75	> 10000	2.2 (≈ 5.61 µM)	52.1	3.2	
COc1ccccc1Oc1ccc2nc(COc3cccc(C(=O)O)c3)n(C)c2c1.Cl	inactive	74	4	474	1.3		60	> 10000	12			
COc1cccc(Oc2ccc3nc(COc4cccc(C(=O)O)c4)n(C)c3c2)c1	inactive	68	30	235	1.8		92	> 10000	5.4 (≈ 13.4 µM)			

The remaining compounds from weak to strong by EC50 [5], led by results:

Activity [1]	remaining at 0.5 h [2] [%]	Emax [3] [%]	EC50 [5] [nM]	logD at 0.5 h [6]	concentration at 72 h [7] [ng/mL]	Emax [8] [%]	EC50 [10] [nM]	solubility thermodynamic at 4 h [11] [µg/mL]	Compound	Activity [4] [%]	Activity [9] [%]	other results
inactive	62	16	56	2.4	100	80	> 10000	2.2 (≈ 5.66 µM)	Cc1ccccc1Oc1ccc2nc(COc3cccc(C(=O)O)c3)n(C)c2c1	26.9	3.7	
inactive	85	56	23	2.8	90	81			Cl.Cn1c(COc2cccc(C(=O)O)c2)nc2ccc(Oc3cccc(C(F)(F)F)c3)cc21	45.1	3.8	
	59	19	22	2.5	190	66	> 10000	1.7 (≈ 4.18 µM)	Cc1cc(F)ccc1Oc1ccc2nc(COc3cccc(C(=O)O)c3)n(C)c2c1	54.7	2.8	remaining at 0.5 h [12]: 47%; Activity [14]: 22%; Cmax [16]: 42 ng/mL; Activity [17]: 11.9%; AUC at 24 h [21]: 420 ng·h/mL; Tmax [25]: 4 h
	62	12	21	2	360	95	> 10000	16 (≈ 38.4 µM)	Cn1c(COc2cccc(C(=O)O)c2)nc2ccc(Oc3ccc4c(c3)OCC4)cc21	41.6	4.8	remaining at 0.5 h [12]: 79%; Activity [14]: 69.7%; Cmax [16]: 80 ng/mL; Activity [17]: 15.6%; AUC at 24 h [21]: 850 ng·h/mL; Tmax [25]: 3.2 h
